# Where two headings read alike, the source gives them in different places.
# Experiments:
# [1] = Cytotoxicity in normal prostatic epithelial RWPE-1 cells; conditions: human
# Method: (§1) To identify initial lead(s), we first tested all ten drugs in vitro in human prostate cancer LNCaP and CRPC C4-2 cells to see their growth inhibition effect.
# (§2) The LNCaP, C4-2 & RWPE-1 cell lines were provided by Professor Timothy Ratliff (Purdue University Center for Cancer Research, USA). All these cells were and maintained at 37° C. with 5% CO2 atmosphere in a humidified incubator following American Type Culture Collection (ATCC) protocol. LNCaP cells were grown in RPMI-1640 (Gibco) supplemented with 10% FBS (Atlanta Biologics), 20 mM HEPES and 1% penicillin/streptomycin (Invitrogen). C4-2 cells were grown in 4:1 DMEM/F12-K medium (Gibco) supplemented with 10% FBS (Atlanta Biologics), 1% penicillin/streptomycin (Invitrogen), 3 mg/mL sodium bicarbonate, 5 μg/mL insulin, 1.36 ng/mL triiodothyronine, 5 μg/mL transferrin, 0.25 μg/mL biotin and 25 μg/mL adenine. For normal growth, RWPE-1 cells were maintained in Keratinocyte Serum Free Medium (K-SFM) (Invitrogen) supplemented with 0.05 mg/mL bovine pituitary extract (BPE) and 5 ng/mL epidermal growth factor (EGF). […] For experiments, cells were used from 3 to 12 passages from thawing.
# (§3) The cell proliferation experiment was carried out by the ‘Cell Titer-Blue Cell Viability Assay,’ In this assay, approximately 5,000 cells/well were seeded in 100 μL growth media in poly-L-lysine coated 96-well plates. Next day, the cells were treated with additional 100 μL of various concentrations of the test compounds or DMSO-growth media as untreated control for 6 days in a humidified incubator at 37° C. and 5% CO2 atmosphere. 10 μL ‘Cell Titer-Blue Reagent’ was added directly to each well after 6 days and the plates were incubated for 3 h at 37° C. to allow cells to convert resazurin to resorufin, and the fluorescent signal was measured at 590 nm using a multiplate ELISA reader (Bio-Tek Synergy HT plate reader, Bio-Tek, Winooski, Vt.). The percentage of viable cells in a compound-treated sample was calculated by considering the absorbance of the DMSO-growth media treated sample as 100%. Data was analysed and IC50 value was calculated using GraphPad Prism Software. All experimental points were done in triplicate and experiments were repeated at least thrice.
# (§4) The cell viability assay was performed using a standard methyl thiazolyldiphenyl tetrazolium bromide (MTT) assay. In this assay, approximately 5,000 cells/well were seeded in 100 μL growth media in poly-L-lysine coated 96-well plates. After 1 day of plating, the cells were treated with additional 100 μL of various concentrations of the test compounds or DMSO-growth media as untreated control for 3 days more in a humidified incubator at 37° C. and 5% CO2 atmosphere. After 3 days, the culture medium was replaced with 100 μL of MTT solution (using 1 mg/ml stock in growth media) per well and further incubated at 37° C. for 3-4 h. To dissolve the formazan crystals formed in each well by mitochondrial reductase from live cells, 100 μL DMSO was added in each well and shaked for 30 min at RT using an orbital shaker. The absorbance of each well was measured at 570 nm using a multiplate ELISA reader (Bio-Tek Synergy HT plate reader, Bio-Tek, Winooski, Vt.). The percentage of viable cells in a compound-treated sample was calculated by considering the absorbance of the DMSO-growth media treated sample as 100%. All experimental points were done in triplicate and experiments were repeated at least thrice.
# C4-2 cells [2] = assay: In vitro scratch assay, C4-2 cell migration; type: cell-based, human; conditions: no treatment 6.5 μm/h
# Description: (§5) We evaluated effects of the active leads on the cancer cell migration—as most often, prostate cancer cell metastasizes to bone leading to the advanced prostate cancer. We performed the well developed in vitro scratch assay to measure both LNCaP and C4-2 cell's migration in presence of the treatments of all these active synthetic compounds. We calculated the migration speed based on the distance travelled/h. The LNCaP cells with no treatment migrated at a speed of 4.8 μm/h, whereas, treatment with 1, 2, 3 and 4 led to a slower rate (2.2, 3.5, 2.6 and 3.7 μm/h respectively) of migration; almost half of the migration speed as compared to that of the non-treated cells. The C4-2 cells with no treatment migrated at a speed of 6.5 μm/h whereas, treatment with 1, 2, 3 and 4 led to a slower rate (2.4, 3.3, 3.9 and 2.5 μm/h respectively) of migration (FIGS. 3D-3E). Since migration is the first step towards invasion and metastasis of cancer cells 1, 2, 3 and 4 might as well interfere with the metastasis process and lead 1 was found as the most efficient among these based on the migration speed rate in both the cells.
# LNCaP cells [3] = assay: In vitro scratch assay, LNCaP cell migration; type: cell-based, human; conditions: no treatment 4.8 μm/h
# Description: as §5
# C4-2 cells [4] = assay: Cell proliferation / growth inhibition in CRPC C4-2 cells; type: cell-based, human
# Method: as §1
# We assessed anti-cancer activity of the synthetic molecules in prostate cancer cell lines as well as toxicity of the active molecules in normal human cell line.
# as §2, §3
# LNCaP cells [5] = assay: Cell proliferation / growth inhibition in LNCaP cells; type: cell-based; conditions: Homo sapiens, read-out: growth inhibition IC50
# Method: All these cells were and maintained at 37° C. with 5% CO2 atmosphere in a humidified incubator following American Type Culture Collection (ATCC) protocol. LNCaP cells were grown in RPMI-1640 (Gibco) supplemented with 10% FBS (Atlanta Biologics), 20 mM HEPES and 1% penicillin/streptomycin (Invitrogen). […] For experiments, cells were used from 3 to 12 passages from thawing.
# RWPE-1 cells = assay: Cytotoxicity in normal prostatic epithelial RWPE-1 cells; conditions: read-out: cytotoxicity IC50; RWPE-1 normal cells
# Method: as §1, §2, §3, §4
# LuCaP35CR xenografts = assay: LuCaP35CR patient derived xenograft (PDX) mice model
# [6] = mouse liver microsomes, 3 μM, 37° C., 60 min
# Method: In this assay, the lead compounds were incubated with the respective microsomes at 37° C. and the incubated mixture was analyzed by LC-MS/MS to quantify the remaining parent molecule.
# All the test compounds were incubated in duplicate at 3 μM concentration with mouse and human liver microsomes at 37° C. The reaction mixture contained microsomal enzyme in 100 mM potassium phosphate buffer of pH 7.4. Warfarin and verapamil were used as negative and positive control in this assay. After 0 min and 60 min incubation, aliquots were removed from each experimental and control reaction and mixed with an equal volume of ice-cold Stop Solution (0.3% acetic acid in acetonitrile). The samples were centrifuged to remove precipitated protein, and the supernatants were analyzed by LC-MS/MS to quantify the remaining parent molecule. Data represents % remaining as compared to the time zero concentration as 100%.
# androgen receptor (AR) = target: T1, androgen receptor (AR) (Homo sapiens, UniProt P10275, T878A); assay: Western blot of AR expression in C4-2 cell lysates; type: cell-based; conditions: C4-2 cells, 1 μM, 24 h, compared to vehicle and other treatments including ABI
# T1 construct: we performed western blot analysis of LNCaP and C4-2 cells' lysates after treated with the indicated drugs/compounds; endogenous in cells; host or cells: C4-2
# T1 sequence (P10275 whole entry T878A): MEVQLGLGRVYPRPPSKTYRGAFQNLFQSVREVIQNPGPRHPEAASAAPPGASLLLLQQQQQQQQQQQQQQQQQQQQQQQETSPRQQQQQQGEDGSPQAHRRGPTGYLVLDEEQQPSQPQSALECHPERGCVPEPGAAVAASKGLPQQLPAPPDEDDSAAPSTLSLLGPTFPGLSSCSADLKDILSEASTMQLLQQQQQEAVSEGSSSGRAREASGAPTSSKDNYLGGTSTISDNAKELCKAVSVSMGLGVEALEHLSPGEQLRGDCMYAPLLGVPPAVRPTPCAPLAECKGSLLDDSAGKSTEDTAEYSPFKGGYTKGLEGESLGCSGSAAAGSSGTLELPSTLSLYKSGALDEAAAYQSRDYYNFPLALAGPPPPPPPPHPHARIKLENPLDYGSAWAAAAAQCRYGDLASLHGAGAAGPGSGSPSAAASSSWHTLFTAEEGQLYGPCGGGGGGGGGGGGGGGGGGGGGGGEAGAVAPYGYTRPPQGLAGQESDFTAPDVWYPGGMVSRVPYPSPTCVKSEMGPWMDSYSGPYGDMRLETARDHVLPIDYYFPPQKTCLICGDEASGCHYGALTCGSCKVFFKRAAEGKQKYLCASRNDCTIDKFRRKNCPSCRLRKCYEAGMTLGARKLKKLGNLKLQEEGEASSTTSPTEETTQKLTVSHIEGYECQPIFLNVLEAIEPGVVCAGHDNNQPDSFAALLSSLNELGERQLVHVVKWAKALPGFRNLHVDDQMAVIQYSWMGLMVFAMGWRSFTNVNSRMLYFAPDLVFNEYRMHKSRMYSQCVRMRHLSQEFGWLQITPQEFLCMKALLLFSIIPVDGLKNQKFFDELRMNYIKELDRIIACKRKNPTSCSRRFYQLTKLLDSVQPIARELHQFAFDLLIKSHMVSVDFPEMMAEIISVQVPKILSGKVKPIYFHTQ
# Method: First, 0.5×10^6 cells/well were seeded in 6-well plate coated with 0.01% poly-L-lysine. Next day, cells were treated with 1 μM concentrations of drugs/compounds or 0.01% DMSO-growth media as vehicle control and the treatment was continued for 24 h in a humidified incubator at 37° C. and 5% CO2 atmosphere. Following treatment, cells were washed with cold PBS and lysed in TBSN buffer (20 mmol/L Tris, pH 8.0, 150 mmol/L NaCl, 1.5 mmol/L EDTA, 5 mmol/L EGTA, 0.5% Nonidet P-40, and 0.5 mmol/L Na3VO4) supplemented with 1× protease inhibitor cocktail tablets to obtain cellular lysates. The protein concentration of the whole cell lysate was quantified by Pierce BCA Protein Assay (Thermo Scientific). The lysate was run on 10% SDS-PAGE gel (40 μg of protein per lane) and β-actin (clone 8H10D10, Cell Signaling Technology) was used as a loading control. Proteins were transferred onto PVDF membrane and the nonspecific binding was blocked using 5% milk in PBS-T (0.05% Tween-20 in PBS buffer) for 1 h. […] Protein expression was normalized to β-actin and densitometry was calculated using ImageJ Software.
# [7] = Homo sapiens, C4-2 cells, read-out: growth inhibition / proliferation IC50
# [8] = Homo sapiens, C4-2, read-out: growth inhibition / proliferation IC50
# [9] = C4-2 cells, read-out: growth inhibition / proliferation IC50
SMILES,migration speed (C4-2 cells [2]) [μm/h],migration speed (LNCaP cells [3]) [μm/h],IC50 (C4-2 cells [4]; [7]) [nM],IC50 [1] [µM],IC50 (RWPE-1 cells) [µM],IC50 (C4-2 cells [4]; [9]) [nM],other results
"C[C@]12CC[C@H](O)CC1=CC[C@@H]1[C@@H]2CC[C@]2(C)C(c3cccnc3)=CC[C@@H]12 [ABI, abiraterone, reference compound]",–,–,–,–,–,–,IC50 ([1]; RWPE-1 normal prostatic epithelial cells): 7.2 µM
C#C[C@@]1(O)CC[C@@H]2[C@H]3[C@@H](CC[C@@]21C)[C@H]1CCC(=NO)C=C1C[C@H]3C [Compound 3],3.9,2.6,< 100,–,–,–,–
C#C[C@]1(O)CC[C@H]2[C@@H]3CCC4=CC(=NO)CC[C@@H]4[C@H]3CC[C@@]21C [Compound 4],2.5,3.7,–,–,–,–,–
"C#C[C@]1(O)CC[C@H]2[C@@H]3[C@H](C)CC4=C(CCC(=O)C4)[C@H]3CC[C@@]21C [TIB, tibolone, reference compound]",–,–,–,23.3,–,–,IC50 (C4-2 cells [4]; [8]): 3.12 nM; IC50 (LNCaP cells [5]; LNCaP): 24.9 nM
"C#C[C@]1(O)CC[C@H]2[C@@H]3CCC4=CC(=O)CC[C@@H]4[C@H]3CC[C@@]21C [NOR, norethisterone, reference compound]",–,–,7.04,86.3,–,–,IC50 (LNCaP cells [5]; LNCaP cells): 32.5 nM
C[C@H]1CC2=CC(=O)CC[C@@H]2[C@@H]2CC[C@@]3(C)[C@H](CC[C@]3(O)C#Cc3ccccc3N)[C@@H]21 [Compound 15],–,–,–,–,13.5,4.1,–
"C#C[C@]1(O)CC[C@H]2[C@@H]3CCC4=CC(=O)CC[C@@H]4[C@H]3CC[C@@]21CC [LEV, levonorgestrel, reference compound]",–,–,41.8,59.7,–,–,IC50 (LNCaP cells [5]; LNCaP cells): 181 nM
CC[C@@]1(O)CC[C@@H]2[C@H]3[C@@H](CC[C@@]21C)[C@H]1CCC(=O)CC1C[C@@H]3C (some centres unmarked) [Compound 13],–,–,–,–,17.8,3.5,–
C#C[C@@]1(O)CC[C@@H]2[C@H]3[C@@H](CC[C@@]21C)[C@H]1CCC(=O)C=C1C[C@@H]3C [Compound 1],2.4,2.2,–,–,54.6,0.72,"average body weight (LuCaP35CR xenografts; LuCaP35CR mice, over 16 days): did not change the average body weight; tumor growth (LuCaP35CR xenografts; castrate mice bearing LuCaP35CR xenografts, 10 mg/kg, compared to vehicle): suppressed the tumor growth rapidly; metabolic stability compared to ABI [6]: more stable than the current CRPC drug ABI; proliferation IC50 compared to ABI, in words (C4-2 cells [4]; C4-2 cells): much less in C4-2 cells than that of ABI; AR degradation (western blot), in words (androgen receptor (AR)): degraded AR efficiently"
"C#C[C@]1(O)CC[C@H]2[C@@H]3CCC4=CC(=O)CC[C@]4(C)[C@H]3CC[C@@]21C [Compound 2, Ethisterone]",3.3,3.5,–,18.3,–,–,IC50 (C4-2 cells [4]; [8]): 11 nM

# — patent US20220169672A1, “COMPOUNDS FOR TARGETED THERAPIES OF CASTRATION RESISTANT PROSTATE CANCER” (Purdue Research Foundation, priority 2019, published 2022)
